The target in experiment [1] is T1, Aurora kinase A (Homo sapiens, UniProt O14965).
T1 sequence (O14965 whole entry): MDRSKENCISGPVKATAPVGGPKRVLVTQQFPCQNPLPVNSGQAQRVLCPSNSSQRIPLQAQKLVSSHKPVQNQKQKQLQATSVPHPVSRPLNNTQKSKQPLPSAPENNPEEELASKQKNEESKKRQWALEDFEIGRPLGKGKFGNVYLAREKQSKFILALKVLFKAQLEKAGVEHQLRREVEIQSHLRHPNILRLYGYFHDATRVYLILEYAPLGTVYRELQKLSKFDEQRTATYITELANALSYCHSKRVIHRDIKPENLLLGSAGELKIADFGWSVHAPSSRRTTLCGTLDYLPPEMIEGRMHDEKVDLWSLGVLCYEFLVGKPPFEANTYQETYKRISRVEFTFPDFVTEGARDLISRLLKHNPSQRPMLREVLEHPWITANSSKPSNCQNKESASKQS
The experiment is described as follows: Inhibition of Aurora A (unknown origin).

Experiment [2] deals with T2, Aurora kinase B (Homo sapiens, UniProt Q96GD4). The experiment is described as follows: Inhibition of Aurora B (unknown origin).
The species named for experiment [3] is Homo sapiens. In words: Selectivity ratio of IC50 for inhibition of Aurora B (unknown origin) to IC50 for inhibition of Aurora A (unknown origin).
For experiment [4], the system named is HCC1954. The experiment is described as follows: Antiproliferative activity against human HCC1954 cells measured after 72 hrs by SRB assay. Format: functional. (In general: Sulforhodamine B stains cellular protein and so reports cell mass.)
Experiment [5] relates to HCT-116. The experiment is described as follows: Antiproliferative activity against human HCT-116 cells measured after 72 hrs by SRB assay. Format: functional.
The test system of experiment [6] is MCF7. The experiment is described as follows: Antiproliferative activity against human MCF7 cells measured after 72 hrs by SRB assay. Format: functional.
The subject of experiment [7] is MOLM-13. In words: Antiproliferative activity against human MOLM-13 cells measured after 72 hrs by SRB assay. Format: functional.
Experiment [8] relates to MV4-11. The experiment is described as follows: Antiproliferative activity against human MV4-11 cells measured after 72 hrs by SRB assay. Format: functional.
Experiment [9] concerns K562. In words: Antiproliferative activity against human K562 cells measured after 72 hrs by SRB assay. Format: functional.
Experiment [10] has as its system BT-549. The experiment is described as follows: Antiproliferative activity against human BT-549 cells measured after 72 hrs by SRB assay. Format: functional.
The test system of experiment [11] is CAL-51. The experiment is described as follows: Antiproliferative activity against human CAL-51 cells measured after 72 hrs by SRB assay. Format: functional.
Experiment [12] deals with T3, Aurora kinase A (Homo sapiens) (UniProt O14965).
T3 sequence (whole entry): T1 sequence (O14965 whole entry)
The experiment is described as follows: Binding affinity to Aurora A (unknown origin) expressed in Escherichia coli Rosetta 2(DE3) at 1 mM by STD NMR analysis.

For experiment [13], the system named is A549. The experiment is described as follows: Induction of abnormal mitosis in human A549 cells assessed as formation of aberrant spindle assembly at 3 to 6 uM measured after 24 hrs by DAPI staining based immunofluorescence assay. Format: functional, cell-based. To be noted: dose 3-6 µM.
For experiment [14], the system named is A549. The experiment is described as follows: Induction of abnormal mitosis in human A549 cells assessed as formation of single spindle pole at 3 to 6 uM measured after 24 hrs by CDK5Rap2 staining based immunofluorescence assay. Format: functional, cell-based. To be noted: dose 3-6 µM.
Experiment [15] deals with A549. In words: Induction of abnormal mitosis in human A549 cells assessed as formation of misaligned chromosome at 3 to 6 uM measured after 24 hrs by DAPI staining based immunofluorescence assay. Format: functional, cell-based. To be noted: dose 3-6 µM.
Experiment [16] concerns A549. In words: Induction of abnormal mitosis in human A549 cells assessed as increase in abrogated mitotic cells at 3 to 6 uM measured after 24 hrs by DAPI staining based immunofluorescence assay. To be noted: dose 3-6 µM. Format: functional, cell-based.
Experiment [17] has as its system HCT-116. The experiment is described as follows: Induction of apoptosis in human HCT-116 cells assessed as increase in cleaved PARP expression at 1.25 to 5 uM measured after 24 hrs by Western blot analysis. Format: functional, cell-based. To be noted: dose 1.25-5 µM. Background: A western blot detects proteins with antibodies after separation by electrophoresis.

Experiment [18] relates to HCT-116. In words: Induction of apoptosis in human HCT-116 cells assessed as early apoptotic cells at 2.5 uM measured after 24 hrs by Annexin V-FITC/propidium iodide staining based flow cytometry (reference value: 2.92%). Format: functional.
Experiment [19] concerns HCT-116. The experiment is described as follows: Induction of apoptosis in human HCT-116 cells assessed as late apoptotic cells at 2.5 uM measured after 24 hrs by Annexin V-FITC/propidium iodide staining based flow cytometry (reference value: 0.02%). Format: functional. A general note: In flow cytometry, cells or beads pass a laser one at a time.
The subject of experiment [20] is HCT-116. In words: Induction of apoptosis in human HCT-116 cells assessed as early apoptotic cells at 5 uM measured after 24 hrs by Annexin V-FITC/propidium iodide staining based flow cytometry (reference value: 2.92%). Format: functional.
The subject of experiment [21] is HCT-116. The experiment is described as follows: Induction of apoptosis in human HCT-116 cells assessed as late apoptotic cells at 5 uM measured after 24 hrs by Annexin V-FITC/propidium iodide staining based flow cytometry (reference value: 0.02%). Format: functional.
Experiment [22] addresses T3, Aurora kinase A (Homo sapiens). In words: Inhibition of Aurora A (122 to 403 residues) (unknown origin) expressed in Escherichia coli Rosetta 2(DE3) assessed as reduction in TACC3 phosphorylation at Ser 558 residue at 25 uM using TACC3 (519 to 838 residues) as substrate measured after 30 mins by Western blot analysis.
Experiment [23] concerns the target T1, Aurora kinase A. In words: Inhibition of Aurora A (122 to 403 residues) (unknown origin) expressed in Escherichia coli Rosetta 2(DE3) assessed as reduction in TACC3 phosphorylation at Ser 558 residue using TACC3 (519 to 838 residues) as substrate measured after 30 mins by Western blot analysis.
For experiment [24], the species on record is Homo sapiens. The experiment is described as follows: Selectivity ratio of IC50 for inhibition of Aurora B (unknown origin) to IC50 for inhibition of Aurora A (unknown origin) expressed in Escherichia coli Rosetta 2(DE3).
In experiment [25] the target is T3, Aurora kinase A (Homo sapiens). In words: Inhibition of Aurora A in human HCT-116 cells using TACC3 as substrate measured after 2 hrs by Western blot analysis. Format: cell-based. Conditions: dose 1.56-50 µM, DDE = dose-dependent effect.
The target of experiment [26] is T2, Aurora kinase B. In words: Inhibition of Aurora B in human HCT-116 cells using histone H3 as substrate measured after 2 hrs by Western blot analysis. Format: cell-based.

pIC50: −log10 of the molar value. Activity calls are given as the source filed them. No cut-off for these calls is given here.

T2 sequence (Q96GD4 whole entry): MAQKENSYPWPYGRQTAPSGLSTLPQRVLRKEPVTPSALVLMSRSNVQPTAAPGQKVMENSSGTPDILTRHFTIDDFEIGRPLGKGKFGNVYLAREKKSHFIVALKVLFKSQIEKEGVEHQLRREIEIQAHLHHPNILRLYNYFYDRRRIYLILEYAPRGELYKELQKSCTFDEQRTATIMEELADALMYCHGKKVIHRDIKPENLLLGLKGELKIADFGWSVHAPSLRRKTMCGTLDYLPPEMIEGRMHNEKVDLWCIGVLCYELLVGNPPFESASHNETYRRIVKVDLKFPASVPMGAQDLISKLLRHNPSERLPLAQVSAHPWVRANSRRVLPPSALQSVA

What is called pIC50 is −log10 of the IC50, conventionally taken in molar units. The term GI50 denotes the concentration giving 50% growth inhibition. Take `O=C1c2ccccc2C(=O)c2c(O)c(CCl)cc(O)c21`: the results for the negative logarithm of the IC50 (pIC50) in [1] and in experiment [2] were 6.92 and 6.39, respectively. Further, the Ratio IC50 in experiment [3] stood at 3.42. Besides, the GI50 stood at 0.61 µM in experiment [4]; 0.22 µM in experiment [5]; 0.59 µM in [6]; 3.7 µM in [7]; 6.3 µM in [8]; 2.8 µM in [9]. Moreover, the GI50 in experiment [10] was 0.4 µM; in [11], 0.15 µM. The result in experiment [12], in experiment [13], in experiment [14], in experiment [15], in experiment [16] and in experiment [17] was Active. In addition, the Activity in experiment [18] is 11.27%; in experiment [19], 8.31%; in [20], 17.6%; in [21], 53.93%.
With `CC1=CC(=O)c2cccc(O)c2C1=O`, the GI50 was 0.34 µM in experiment [4]; 0.46 µM in [5]; 1.4 µM in experiment [6]; 4.1 µM in [7]; 26.5 µM in experiment [8]; 1.3 µM in experiment [9]. Besides, the GI50 worked out at 2.7 µM in experiment [10] and 2.5 µM in [11].
Regarding `COC(=O)/C=C(/CC1=C(CCC(=O)CC2(C)OCCO2)C(=O)c2ccccc2C1=O)OC`, the GI50 in [4] was found to be 19.1 µM; in [5], 21.5 µM; in experiment [6] it was 28.3 µM; in experiment [7] it was 16.8 µM; in experiment [8], 43.1 µM; in experiment [9] it was 9.7 µM. Also, the figures for the GI50 in experiment [10] and in experiment [11] were 24 µM and 16.3 µM, respectively.
With `CC1(C)CCC2=C(O1)c1ccccc1C(=O)C2=O` [LAPACHONE], the GI50 in experiment [4] is 31.8 µM; in experiment [5] it was 12.9 µM; in [6], 12.2 µM; in experiment [7] it was 34.5 µM; in experiment [8] it was 70.1 µM; in experiment [9], 41 µM. Besides, the results for the GI50 in experiment [10] and in [11] were 11.4 µM and 8.3 µM, respectively.
`O=C1C=CC(=O)c2c(O)ccc(O)c21` [NAPHTHAZALIN]: the inhibition result in experiment [22] and in experiment [26] was “Active” throughout. Besides, the pIC50 in experiment [2] is 6.46; in experiment [23], 7.05. Besides, in experiment [24], the Ratio IC50 amounted to 3.89. In experiment [25], the inhibition entry was “Dde”. Besides, the GI50 in experiment [4] stood at 0.49 µM; in experiment [5], 0.16 µM; in experiment [6] it was 0.43 µM; in [7], 0.28 µM; in experiment [8], 0.19 µM; in experiment [9], 1.7 µM. The GI50 in experiment [10] amounted to 0.43 µM; in [11], 0.56 µM. Further, the result in [12], in [13], in experiment [14], in experiment [15], in experiment [16] and in experiment [17] was Active. Besides, the Activity in [18] is recorded as 6.85%; in experiment [19], 3.78%; in experiment [20], 6.36%; in experiment [21] it was 21.56%.
As for `CC1=C(Br)C(=O)c2ccccc2C1=O`, in experiment [22], the inhibition result is “Active”. Moreover, the pIC50 in [1] is 7.05; in [2] it was 6.02. The Ratio IC50 in [3] is 10.7. The GI50 in [4] was 1.4 µM; in [5], 3.4 µM; in experiment [6], 19.1 µM; in experiment [7], < 0.01 µM; in [8], 3.3 µM; in experiment [9], 3.4 µM. Further, the GI50 worked out at 4.9 µM in [10] and 1.5 µM in experiment [11].
As to `CC1=CC(=O)c2c(O)cc(C)c(C(=O)C(Cl)Cl)c2C1=O`, the concentration for 50% growth inhibition (GI50) is 1.6 µM in experiment [4]; 4.3 µM in experiment [5]; 25.8 µM in [6]; 3.7 µM in [7]; 0.86 µM in experiment [8]; 3.7 µM in experiment [9]. The GI50 in [10] is 8.5 µM; in [11] it was 1.9 µM.
For `O=C1C=C(Cl)C(=O)c2c(O)cccc21`, in experiment [22], the inhibition result is “Active”. Also, the values for the pIC50 in experiment [1] and in experiment [2] were 6.82 and 5.74, respectively. Moreover, in [3], the Ratio IC50 was 12. Besides, the GI50 in experiment [4] amounted to 0.99 µM; in experiment [5], 4.1 µM; in [6] it was 15.6 µM; in [7], 1.7 µM; in experiment [8], 0.18 µM; in experiment [9], 3.2 µM. The GI50 in [10] was 9.3 µM; in experiment [11] it was 12.7 µM.
On to `COc1ccc2c(c1)C(=O)C=CC2=O`, for which the GI50 in experiment [4] is 2.2 µM; in experiment [5], 8.3 µM; in [6], 28.9 µM; in experiment [7], 4.1 µM; in experiment [8] it was 4.3 µM; in experiment [9], 2.9 µM. The values for the GI50 in [10] and in experiment [11] were 34 µM and 2.8 µM, respectively.
As for `CC=CCC1=C(O)C(=O)c2ccccc2C1=O`, the GI50 in [4] was > 100 µM; in experiment [5], 41.5 µM; in experiment [6], > 100 µM; in experiment [7], > 100 µM; in experiment [8], 79.1 µM; in [9] it was > 100 µM. Further, the GI50 in [10] was 47 µM; in experiment [11], 54.1 µM.
Turning to `O=C1C=CC(=O)c2c(O)cccc21` [JUGLONE], the inhibition entry in experiment [22] was “Active”. In addition, the pIC50 in experiment [1] was 7.30; in experiment [2], 6.21. Further, in experiment [3], the Ratio IC50 was determined as 12.4. Further, the GI50 was 6.44 µM in experiment [4]; 4.2 µM in [5]; 32.6 µM in experiment [6]; 21.9 µM in experiment [7]; 0.06 µM in experiment [8]; > 100 µM in [9]. Further, the GI50 in experiment [10] and in [11] was > 100 µM throughout.
